This passage reports melting point results from patent US6582351B1, “Imidazopyridinone derivatives and their use as phosphodiesterase inhibitors” (Fujisawa Pharmaceutical Co., Ltd., priority 1999, dated 2003).

What is called melting point is the temperature, or range, at which the solid turns liquid.

For the compound `COc1ccc(Cn2c(=O)n([C@H]3CC[C@H](O)CC3)c3ccc(C(F)(F)F)cc32)cc1OC` [Example 1, 3-(3,4-dimethoxybenzyl)-1-(trans-4-hydroxycyclohexyl)-5-trifluoromethyl-2,3-dihydro-1H-benzimidazol-2-one], the melting point was in the range of 108 to 110 °C.
Under `COc1cc(Cn2c(=O)n(C3CCCC3)c3ccc([N+](=O)[O-])cc32)ccc1Cl` [Example 2(2), 3-(4-Chloro-3-methoxybenzyl)-1-cyclopentyl-5-nitro-2,3-dihydro-1H-benzimidazol-2-one] stands 170 to 171.5 °C; under `COc1ccc(Cn2c(=O)n([C@H]3CC[C@H](O)CC3)c3ccc([N+](=O)[O-])cc32)cc1OC` [Example 2(3), 3-(3,4-Dimethoxybenzyl)-1-(trans-4-hydroxycyclohexyl)-5-nitro-2,3-dihydro-1H-benzimidazol-2-one], 175 to 176 °C.
Under `COc1ccc(Cn2c(=O)n([C@H]3CC[C@H](O)CC3)c3ccc(C#N)cc32)cc1OC` [Example 2(5), 5-Cyano-3-(3,4-dimethoxybenzyl)-1-(trans-4-hydroxycyclohexyl)-2,3-dihydro-1H-benzimidazol-2-one] stands 209 to 210 °C; under `COc1ccc(Cn2c(=O)n([C@H]3CC[C@H](O)CC3)c3ccc(C(C)=O)cc32)cc1OC` [Example 2(7), 5-Acetyl-3-(3,4-dimethoxybenzyl)-1-(trans-4-hydroxycyclohexyl)-2,3-dihydro-1H-benzimidazol-2-one], 169 to 170 °C.
To `COc1ccc(Cn2c(=O)n([C@H]3CC[C@H](NC=O)CC3)c3ccc(C(F)(F)F)cc32)cc1OC` [Example 2(8), 3-(3,4-Dimethoxybenzyl)-1-(trans-4-formamidocyclohexyl)-5-trifluoromethyl-2,3-dihydro-1H-benzimidazol-2-one] belongs 158 to 160.5 °C; to `COc1ccc(Cn2c(=O)n([C@H]3CC[C@H](O)CC3)c3ccc(Cl)cc32)cc1OC` [Example 2(9), 5-Chloro-3-(3,4-dimethoxybenzyl)-1-(trans-4-hydroxycyclohexyl)-2,3-dihydro-1H-benzimidazol-2-one], 166 to 167 °C.
For the compound `COC(=O)c1ccc2c(c1)n(Cc1ccc(OC)c(OC)c1)c(=O)n2[C@H]1CC[C@H](O)CC1` [Example 2(10), 3-(3,4-Dimethoxybenzyl)-1-(trans-4-hydroxycyclohexyl)-5-methoxycarbonyl-2,3-dihydro-1H-benzimidazol-2-one], the melting point lay in the range of 148 to 149.5 °C.
In turn, `COc1ccc2c(c1)n(Cc1ccc(OC)c(OC)c1)c(=O)n2[C@H]1CC[C@H](O)CC1` [Example 2(11), 3-(3,4-Dimethoxybenzyl)-1-(trans-4-hydroxycyclohexyl)-5-methoxy-2,3-dihydro-1H-benzimidazol-2-one] had a melting point of 176 to 177 °C.
`COc1ccc(Cn2c(=O)n([C@H]3CC[C@H](OC(C)=O)CC3)c3ncc(C(F)(F)F)cc32)cc1OC` [Example 2(12), 3-(trans-4-Acetoxycyclohexyl)-1-(3,4-dimethoxybenzyl)-6-trifluoromethyl-2,3-dihydro-1H-imidazo[4,5-b]pyridin-2-one] gave a melting point of 130 to 133 °C.
Compound `COc1ccc(Cn2c(=O)n(C3CCCC3)c3ncc(C(F)(F)F)cc32)cc1OC` [Example 2(13), 3-Cyclopentyl-1-(3,4-dimethoxybenzyl)-6-trifluoromethyl-2,3-dihydro-1H-imidazo[4,5-b]pyridin-2-one] returned a melting point of 115 to 116 °C.
Under `COc1ccc(Cn2c(=O)n([C@H]3CC[C@H](OC(C)=O)CC3)c3ncc(C(F)(F)F)cc32)cc1Cl` [Example 2(15), 3-(trans-4-Acetoxycyclohexyl)-1-(3-chloro-4-methoxybenzyl)-6-trifluoromethyl-2,3-dihydro-1H-imidazo[4,5-b]pyridin-2-one] stands 165 to 166 °C.
To `COc1ccc(Cn2c(=O)n([C@H]3CC[C@H](O)CC3)c3ccc([N+](=O)[O-])cc32)cc1Cl` [Example 2(16), 3-(3-Chloro-4-methoxybenzyl)-1-(trans-4-hydroxycyclohexyl)-5-nitro-2,3-dihydro-1H-benzimidazol-2-one] belongs 142 to 142.5 °C; to `COc1ccc(Cn2c(=O)n(C3CCCC3)c3ncc(C(F)(F)F)cc32)cc1Cl` [Example 2(17), 1-(3-Chloro-4-methoxybenzyl)-3-cyclopentyl-6-trifluoromethyl-2,3-dihydro-1H-imidazo[4,5-b]pyridin-2-one], 156 to 157 °C.
Take `COc1ccc(Cn2c(=O)n([C@H]3CCN(C(=O)OC(C)(C)C)C3)c3ccc(C(F)(F)F)cc32)cc1OC` [Example 2(18), 1-((S)-1-tert-Butoxycarbonylpyrrolidin-3-yl)-3-(3,4-dimethoxybenzyl)-5-trifluoromethyl-2,3-dihydro-1H-benzimidazol-2-one]: the melting point lay within 122 to 122.5 °C.
`COc1ccc(Cn2c(=O)n([C@H]3CCN(C(=O)OC(C)(C)C)C3)c3ccc(C(F)(F)F)cc32)cc1Cl` [Example 2(19), 1-((S)-1-tert-Butoxycarbonylpyrrolidin-3-yl)-3-(3-chloro-4-methoxybenzyl)-5-trifluoromethyl-2,3-dihydro-1H-benzimidazol-2-one] returned a melting point of 157 to 157.5 °C.
In the case of `COc1ccc(Cn2c(=O)n(-c3ccc4[nH]cnc4c3)c3ccc(C(F)(F)F)cc32)cc1OC` [Example 2(20), 1-(1H-Benzimidazol-5-yl)-3-(3,4-dimethoxybenzyl)-5-trifluoromethyl-2,3-dihydro-1H-benzimidazol-2-one], the melting point is 174 to 175 °C.
To `COc1ccc(Cn2c(=O)n([C@H]3CC[C@H](O)CC3)c3ccc(C(C)=O)cc32)cc1Cl` [Example 2(22), 5-Acetyl-3-(3-chloro-4-methoxybenzyl)-1-(trans-4-hydroxycyclohexyl)-2,3-dihydro-1H-benzimidazol-2-one] belongs 209 to 210 °C; to `COc1ccc(Cn2c(=O)n([C@H]3CC[C@H](O)CC3)c3ccc(C(F)(F)F)cc32)cc1Cl` [Example 2(24), 3-(3-Chloro-4-methoxybenzyl)-1-(trans-4-hydroxycyclohexyl)-5-trifluoromethyl-2,3-dihydro-1H-benzimidazol-2-one], 167 to 168 °C; to `COc1c(Cl)cc(Cn2c(=O)n([C@H]3CC[C@H](O)CC3)c3ccc([N+](=O)[O-])cc32)cc1Cl` [Example 2(26), 3-(3,5-Dichloro-4-methoxybenzyl)-1-(trans-4-hydroxycyclohexyl)-5-nitro-2,3-dihydro-1H-benzimidazol-2-one], 115 to 116 °C.
`COC(=O)c1ccc2c(c1)n(Cc1ccc(OC)c(Cl)c1)c(=O)n2[C@H]1CC[C@H](O)CC1` [Example 2(27), 3-(3-Chloro-4-methoxybenzyl)-1-(trans-4-hydroxycyclohexyl)-5-methoxycarbonyl-2,3-dihydro-1H-benzimidazol-2-one] registered a melting point of 174 to 175 °C.
Under `CCOc1ccc(Cn2c(=O)n([C@H]3CC[C@H](O)CC3)c3ccc(C(F)(F)F)cc32)cc1Cl` [Example 2(29), 3-(3-Chloro-4-ethoxybenzyl)-1-(trans-4-hydroxycyclohexyl)-5-trifluoromethyl-2,3-dihydro-1H-benzimidazol-2-one] stands 147.5 to 149 °C.
To `COc1ccc(Cn2c(=O)n([C@H]3CC[C@H](O)CC3)c3ccc(C(F)(F)F)cc32)cc1F` [Example 2(30), 3-(3-Fluoro-4-methoxybenzyl)-1-(trans-4-hydroxycyclohexyl)-5-trifluoromethyl-2,3-dihydro-1H-benzimidazol-2-one] belongs 178 to 179 °C; to `COc1ccc(Cn2c(=O)n([C@H]3CC[C@H](O)CC3)c3ccc(C(F)(F)F)cc32)cc1Br` [Example 2(31), 3-(3-Bromo-4-methoxybenzyl)-1-(trans-4-hydroxycyclohexyl)-5-trifluoromethyl-2,3-dihydro-1H-benzimidazol-2-one], 182 to 182.5 °C.
To `COc1ccc(Cn2c(=O)n(C(C)(C)C)c3ccc(C(F)(F)F)cc32)cc1Cl` [Example 2(32), 1-(tert-Butyl)-3-(3-chloro-4-methoxybenzyl)-5-trifluoromethyl-2,3-dihydro-1H-benzimidazol-2-one] belongs 130.5 to 131.5 °C; to `COc1ccc(Cn2c(=O)n(C3CCOCC3)c3ccc(C(F)(F)F)cc32)cc1Cl` [Example 2(34), 3-(3-Chloro-4-methoxybenzyl)-1-(tetrahydro-4H-pyran-4-yl)-5-trifluoromethyl-2,3-dihydro-1H-benzimidazol-2-one], 175 to 176 °C; to `COc1ccc(Cn2c(=O)n(C(C)C)c3ccc(C(F)(F)F)cc32)cc1Cl` [Example 2(35), 3-(3-Chloro-4-methoxybenzyl)-1-isopropyl-5-trifluoromethyl-2,3-dihydro-1H-benzimidazol-2-one], 153.5 to 155 °C.
In turn, `CCCCn1c(=O)n(Cc2ccc(OC)c(Cl)c2)c2cc(C(F)(F)F)ccc21` [Example 2(36), 1-Butyl-3-(3-chloro-4-methoxybenzyl)-5-trifluoromethyl-2,3-dihydro-1H-benzimidazol-2-one] had a melting point of 122 to 124 °C.
Under `COc1ccc(Cn2c(=O)n(C3CCCCC3)c3ccc(C(F)(F)F)cc32)cc1Cl` [Example 2(37), 1-Cyclohexyl-3-(3-chloro-4-methoxybenzyl)-5-trifluoromethyl-2,3-dihydro-1H-benzimidazol-2-one] stands 160 to 161 °C.
Under `COc1ccc(Cn2c(=O)n([C@H]3CC[C@H](O)CC3)c3ccc([N+](=O)[O-])cc32)cc1C#N` [Example 2(97), 3-(3-Cyano-4-methoxybenzyl)-1-(trans-4-hydroxycyclohexyl)-5-nitro-2,3-dihydro-1H-benzimidazol-2-one] stands 122 to 124 °C; under `COC(=O)c1cnc2c(c1)n(Cc1ccc(OC)c(Cl)c1)c(=O)n2[C@H]1CC[C@H](O)CC1` [Example 2(98), 1-(3-Chloro-4-methoxybenzyl)-3-(trans-4-hydroxycyclohexyl)-6-methoxycarbonyl-2,3-dihydro-1H-imidazo[4,5-b]pyridin-2-one], 146 to 148 °C.
